Results on eleven compounds are retold here after US20120220594A1, “METHODS FOR TREATING CANCER IN PATIENTS HAVING IGF-1R INHIBITOR RESISTANCE” (Bristol-Meyers Squibb Company, priority 2009, published 2012).

For one assay, the system named is Rh41 cells. Put plainly: 3H-thymidine incorporation cell proliferation assay in parental Rh41 cells. The assay is classed as cell-based, human. An excerpt: (§1) Human rhabdomyosarcoma cell line Rh41 was provided by Dr. Lee Helman and grown in RPMI medium plus GLUTAMAX® supplemented with 10% fetal bovine serum (FBS), 10 mmol/L HEPES, penicillin, and streptomycin.
In the next assay the test system is Rh41-807R cells. Description: 3H-thymidine incorporation cell proliferation assay in BMS-754807-resistant Rh41-807R cells. The assay is classed as cell-based, human.
From the text: as §1

Another assay relates to Rh41-MAB391R cells. Put plainly: 3H-thymidine incorporation cell proliferation assay in MAB391-resistant Rh41-MAB391R cells. The class given is cell-based, human. The settings on record: Rh41-MAB391R cells, 72 h, 3H-thymidine incorporation; Table 1; read-out: IC50 (nM) Rh41-MAB391R. From the text:
Human rhabdomyosarcoma cell line Rh41 was provided by Dr. Lee Helman and grown in RPMI medium plus GLUTAMAX® supplemented with 10% fetal bovine serum (FBS), 10 mmol/L HEPES, penicillin, and streptomycin. To develop acquired resistant cells to either BMS-754807, or mAB391 (R&D Systems, Inc., Minneapolis, Minn.), the sensitive Rh41 cells were exposed to the corresponding drug at the IC50 concentration and then at gradually increasing concentrations every other culture passage. The IC50 value to the compound was measured periodically during this treatment time until the resistance level reached a plateau.
Human rhabdomyosarcoma cell line Rh41 was chosen in this study to develop acquired resistance because it expresses IGF-1R (Huang et al., Cancer Res., 69(1):161-170 (Jan. 1, 2009)), the target of BMS-754807 and MAB391; and is sensitive to both drugs (Carboni et al., Proceedings of the 100th Annual Meeting of the American Association for Cancer Research, 2009 Apr. 18-22; Denver, Colo., Abstract No. 1742). The acquired-resistant Rh41-807R and Rh41-MAB391R cell lines were developed using a stepwise exposure to increasing concentrations of either IGF-1R/IR inhibitor BMS-754807 or IGF-1R antibody MAB391 for extended periods of time until a resistance plateau was reach. […];

The target in assay [1] is type I-IGF receptor (IGF-1R), as expressed by human rhabdomyosarcoma Rh41 cells and the derived resistant lines (human) (UniProt P08069). Put plainly: cell-based or functional assay.
The mark [2] stands for this setting: Homo sapiens, Rh41 cells, PDGFR inhibitors, Table 7, read-out: Rh41 IC50.
Where [3] appears, read: Homo sapiens, Rh41-807R cells, PDGFR inhibitors, Table 7, read-out: Rh41-807R IC50.
[4] abbreviates: Homo sapiens, Rh41 cells, cytotoxic agents and mTOR inhibitor, Table 2, read-out: Rh41 IC50.
Setting [5] is: Homo sapiens, Rh41-807R cells, cytotoxic agents and mTOR inhibitor, Table 2, read-out: Rh41-807R IC50.
Where [6] appears, read: cytotoxic agents and mTOR inhibitor.

Like-named read-outs stand apart in the source and are kept apart here.

Sequence of type I-IGF receptor (IGF-1R), as expressed by human rhabdomyosarcoma Rh41 cells and the derived resistant lines (human) (P08069 31-1367, change not shown): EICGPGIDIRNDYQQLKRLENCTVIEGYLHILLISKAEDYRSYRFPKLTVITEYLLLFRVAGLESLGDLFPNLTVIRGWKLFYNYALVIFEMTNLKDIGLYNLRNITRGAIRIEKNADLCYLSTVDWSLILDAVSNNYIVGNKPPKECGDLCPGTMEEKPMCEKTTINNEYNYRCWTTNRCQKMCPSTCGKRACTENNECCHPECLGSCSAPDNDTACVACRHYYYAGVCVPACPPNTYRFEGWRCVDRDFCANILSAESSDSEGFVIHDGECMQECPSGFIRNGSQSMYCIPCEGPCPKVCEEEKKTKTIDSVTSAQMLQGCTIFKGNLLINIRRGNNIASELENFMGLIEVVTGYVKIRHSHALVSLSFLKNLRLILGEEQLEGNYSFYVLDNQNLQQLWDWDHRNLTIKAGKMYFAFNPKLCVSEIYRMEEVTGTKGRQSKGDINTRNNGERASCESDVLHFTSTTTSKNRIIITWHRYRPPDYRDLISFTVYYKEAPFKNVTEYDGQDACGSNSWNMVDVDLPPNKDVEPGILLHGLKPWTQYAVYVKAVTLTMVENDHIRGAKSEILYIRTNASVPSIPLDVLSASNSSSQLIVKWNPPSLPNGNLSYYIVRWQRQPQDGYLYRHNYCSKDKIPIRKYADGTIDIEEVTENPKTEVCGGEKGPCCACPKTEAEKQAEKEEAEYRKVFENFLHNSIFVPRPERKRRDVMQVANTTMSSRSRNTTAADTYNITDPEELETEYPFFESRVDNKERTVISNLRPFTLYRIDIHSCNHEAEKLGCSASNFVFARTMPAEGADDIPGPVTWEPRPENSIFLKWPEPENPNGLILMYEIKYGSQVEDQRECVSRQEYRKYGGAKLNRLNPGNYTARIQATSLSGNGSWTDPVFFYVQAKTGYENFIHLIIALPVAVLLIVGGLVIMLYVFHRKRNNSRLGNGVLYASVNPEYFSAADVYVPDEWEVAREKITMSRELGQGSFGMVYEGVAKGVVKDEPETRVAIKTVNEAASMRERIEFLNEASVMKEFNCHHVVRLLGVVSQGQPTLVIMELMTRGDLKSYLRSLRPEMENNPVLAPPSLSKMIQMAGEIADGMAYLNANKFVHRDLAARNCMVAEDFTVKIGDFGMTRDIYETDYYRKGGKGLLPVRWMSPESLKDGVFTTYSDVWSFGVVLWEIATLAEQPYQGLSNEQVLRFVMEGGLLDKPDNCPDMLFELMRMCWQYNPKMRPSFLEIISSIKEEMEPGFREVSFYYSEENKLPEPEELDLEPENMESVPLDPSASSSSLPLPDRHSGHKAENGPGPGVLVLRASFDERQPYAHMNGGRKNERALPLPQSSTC

`Cc1cc(N2CCOCC2)cc2[nH]c(-c3c(NC[C@@H](O)c4cccc(Cl)c4)cc[nH]c3=O)nc12` [BMS-536924]: the IC50 is 31 nM in the assay with Rh41 cells (Rh41 parental cells, 72 h, 3H-thymidine incorporation, Table 1, read-out: IC50 (nM) Rh41); over 1000 nM in the assay on Rh41-807R cells (Rh41-807R cells, 72 h, 3H-thymidine incorporation, Table 1, read-out: IC50 (nM) Rh41-807R); 90.2 ± 2.2 nM in the assay with Rh41-MAB391R cells.
Take `CN1CCN(c2ccc3nc(-c4c(N)c5c(F)cccc5[nH]c4=O)[nH]c3c2)CC1` [Dovitinib]: the IC50 in the assay with Rh41 cells (setting [2]) amounted to 6456 ± 60 nM; in the assay with Rh41-807R cells (setting [3]) it was 722 ± 264 nM.
`Nc1ccn([C@@H]2O[C@H](CO)[C@@H](O)C2(F)F)c(=O)n1` [Gemcitabine]: the IC50 is 1.1 ± 0.4 nM in the assay with Rh41 cells (setting [4]) and 3 nM with Rh41-807R cells (setting [5]). In addition, the “sensitivity of Rh41-807R compared with the parental line” value in the assay with Rh41-807R cells (setting [6]) was “very similar level of sensitivity as the parental line”.
For `C/C(=C\c1csc(C)n1)[C@@H]1C[C@@H]2O[C@]2(C)CCC[C@H](C)[C@H](O)[C@@H](C)C(=O)C(C)(C)[C@@H](O)CC(=O)N1` [Ixabepilone], the 50% inhibitory concentration (IC50) was 4 nM in the assay on Rh41 cells (setting [4]) and 3.4 ± 0.4 nM with Rh41-807R cells (setting [5]).
On the same counts, the results for `CO[C@H]1C[C@@H]2CC[C@@H](C)[C@@](O)(O2)C(=O)C(=O)N2CCCC[C@H]2C(=O)O[C@H]([C@H](C)C[C@@H]2CC[C@@H](O)[C@H](OC)C2)CC(=O)[C@H](C)/C=C(\C)[C@@H](O)[C@@H](OC)C(=O)[C@H](C)C[C@H](C)/C=C/C=C/C=C/1C` [Rapamycin] are under 0.32 nM and under 0.32 nM.
`CNC(=O)c1cc(Oc2ccc(NC(=O)Nc3ccc(Cl)c(C(F)(F)F)c3)cc2)ccn1` [Sorafenib]: the IC50 in the assay with Rh41 cells (setting [2]) is over 2000 nM; with Rh41-807R cells (setting [3]), 804 ± 210 nM.
The matching figures for `CCN(CC)CCNC(=O)c1c(C)[nH]c(/C=C2\C(=O)Nc3ccc(F)cc32)c1C` [Sunitinib]: 1400 ± 634 nM and 1020 ± 321 nM.
Consider `CC(=O)O[C@H]1C(=O)[C@@]2(C)[C@H]([C@H](OC(=O)c3ccccc3)[C@]3(O)C[C@H](OC(=O)[C@H](O)[C@@H](NC(=O)c4ccccc4)c4ccccc4)C(C)=C1C3(C)C)[C@]1(OC(C)=O)CO[C@@H]1C[C@@H]2O` [TAXOL ®, paclitaxel], for which the IC50 in the assay with Rh41 cells (setting [4]) came to 2.1 ± 0.4 nM; in the assay on Rh41-807R cells (setting [5]) it was 1.8 ± 0.3 nM. Besides, the “sensitivity of Rh41-807R compared with the parental line” value with Rh41-807R cells (setting [6]) was “very similar level of sensitivity as the parental line”.
For the compound `CC(=O)O[C@@]12CO[C@@H]1C[C@H](O)[C@@]1(C)C(=O)[C@H](O)C3=C(C)[C@@H](OC(=O)[C@H](O)[C@@H](NC(=O)OC(C)(C)C)c4ccccc4)C[C@@](O)([C@@H](OC(=O)c4ccccc4)[C@H]21)C3(C)C` [Taxotere], the IC50 with Rh41 cells (setting [4]) and in the assay on Rh41-807R cells (setting [5]) was 0.5 nM each time.
Take `CC[C@]12C=CCN3CC[C@@]4(c5cc([C@@]6(C(=O)OC)C[C@@H]7C[C@@H](C(C)(F)F)CN(Cc8c6[nH]c6ccccc86)C7)c(OC)cc5N(C)[C@H]4[C@@](O)(C(=O)OC)[C@@H]1OC(C)=O)[C@@H]32` [Vinflunine]: the IC50 in the assay on Rh41 cells (Homo sapiens, Rh41, read-out: Rh41 IC50 (nM)) was determined as 28 ± 2.8 nM; in the assay on Rh41-807R cells (Homo sapiens, read-out: Rh41-807R IC50 (nM)), 21 ± 3 nM.
As for “MAB391 (R&D Systems), IGF-1R neutralizing antibody”, in assay [1], the IC50 (nM), growth inhibition of Rh41-807R cells, 3H-thymidine incorporation, 72 h was over 2000 nM; the IC50 (nM), growth inhibition of Rh41-MAB391R cells, 3H-thymidine incorporation, 72 h was over 2000 nM; the IC50 (nM), growth inhibition of Rh41 parental cells, 3H-thymidine incorporation, 72 h was 0.1 nM.
